Measured values from patent US20240207292A1, “BORONIC ACID COMPOUNDS, COMPOSITIONS AND METHODS” (Trustees of Tufts College, priority 2021, published 2024).
pIC50: −log10 of the molar value.

Tests used:
[1] = Stability of 6555 with sulfur-containing and other stabilizers, 50 mM AAPH at 80° C. for 30 mins (Tables 7-9); assay type: physicochemical
Description: The effect of specified sulfur-containing compounds and other stabilizer compounds (including non-sulfur-containing stabilizer compounds) and mixtures of sulfur-containing compounds and non-sulfur-containing stabilizer compounds with the boronic acid compound 6555 (structure shown above) at various pH values.

[2] = Effect of N-acetyl methionine (NAM) on stability of 6522/6555 with 50 mM AAPH at 80° C. for 30 mins; assay type: physicochemical; details: pH 5.0, 2 mg/mL
Experimental: Effect of N-acetyl methionine (NAM) on the stability of the compound 6522 (6522 compound structure immediately below) 80° C. in the presence of AAPH 2,2′-azobis-(2-amidopropane)hydrochloride, a free radical generator.
• Concentration:2 mg/mL • Reaction condition: add 50 mM AAPH, at 80° C. for 30 mins

[3] = Degradation in aqueous solution of pH about 3 during HPLC purification and lyophilization; details: during HPLC purification and subsequent lyophilization
[4] = target: recombinant human fibroblast activation protein (FAP) (Homo sapiens (Human), UniProt Q12884); assay: In vitro assay fibroblast activation protein IC50 (Example 21); assay type: biochemical
Sequence of recombinant human fibroblast activation protein (FAP) (Q12884 whole entry): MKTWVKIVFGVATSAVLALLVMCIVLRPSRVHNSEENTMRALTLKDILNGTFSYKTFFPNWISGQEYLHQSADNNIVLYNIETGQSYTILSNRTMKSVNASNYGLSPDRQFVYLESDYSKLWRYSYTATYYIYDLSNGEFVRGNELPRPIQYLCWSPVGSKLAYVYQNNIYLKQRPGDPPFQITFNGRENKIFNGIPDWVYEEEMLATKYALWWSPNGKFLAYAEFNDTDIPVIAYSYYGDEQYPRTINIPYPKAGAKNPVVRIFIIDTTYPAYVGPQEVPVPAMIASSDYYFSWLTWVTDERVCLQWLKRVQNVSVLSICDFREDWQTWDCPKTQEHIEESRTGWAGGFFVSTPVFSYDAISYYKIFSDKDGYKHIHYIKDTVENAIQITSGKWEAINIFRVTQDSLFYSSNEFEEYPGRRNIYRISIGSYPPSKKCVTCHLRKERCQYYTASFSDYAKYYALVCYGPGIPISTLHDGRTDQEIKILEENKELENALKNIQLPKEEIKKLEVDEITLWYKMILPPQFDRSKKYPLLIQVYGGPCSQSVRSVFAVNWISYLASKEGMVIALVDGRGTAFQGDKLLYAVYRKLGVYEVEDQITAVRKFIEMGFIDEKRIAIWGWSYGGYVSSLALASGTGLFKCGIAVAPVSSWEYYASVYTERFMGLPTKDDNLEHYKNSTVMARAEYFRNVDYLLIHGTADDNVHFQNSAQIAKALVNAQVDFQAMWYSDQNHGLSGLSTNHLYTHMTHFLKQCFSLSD

Structure (SMILES): C[C@@H](NC(=O)c1ccc(CNC(=O)CN2CCN(CC(=O)O)CCN(CC(=O)O)CCN(CC(=O)O)CC2)cc1)C(=O)N1CCC[C@H]1B(O)O [compound 6555, DOTA-aminomethyl-Bz-D-Ala-boroPro]
- 6555 Remain (%) ([1]; ascorbate (2.5 mM) +, gentisate (1 mM) +, Sodium sulfite 2.5 mM, pH 4.5, SID 90616, AAPH 80° C. 30 mins): 67.9%
- 6555 Remain (%) ([1]; ascorbate (2.5 mM) +, gentisate (1 mM) +, Sodium sulfite 5.0 mM, pH 4.6, SID 90617, AAPH 80° C. 30 mins): 90.3%
- 6555 Remain (%) ([1]; ascorbate (2.5 mM) +, gentisate (1 mM) +, Sodium sulfite 10.0 mM, pH 4.8, SID 90613, AAPH 80° C. 30 mins): 93.8%
- 6555 Remain (%) ([1]; ascorbate (2.5 mM) +, gentisate (1 mM) +, Sodium sulfite 25.0 mM, pH 5.1, SID 90517, AAPH 80° C. 30 mins): 94.1%
- 6555 Remain (%) ([1]; ascorbate (2.5 mM) +, gentisate (1 mM) +, Stabilizer (1 mM) NAM, pH 4.6, SID 90629, AAPH 80° C. 30 mins): 30.8%
- 6555 Remain (%) ([1]; ascorbate (2.5 mM) +, gentisate (1 mM) +, Stabilizer (1 mM) Sodium hydrosulfite, pH 4.5, SID 90629, AAPH 80° C. 30 mins): 47.4%
- 6555 Remain (%) ([1]; ascorbate (2.5 mM) +, gentisate (1 mM) +, Stabilizer (1 mM) Sodium metabisulfite, pH 4.5, SID 90628, AAPH 80° C. 30 mins): 71.1%
- 6555 Remain (%) ([1]; ascorbate (2.5 mM) +, gentisate (1 mM) +, Stabilizer (2.5 mM) Acetone sodium bisulfite, pH 4.6, SID 90523, AAPH 80° C. 30 mins): 94.0%
- 6555 Remain (%) ([1]; ascorbate (2.5 mM) +, gentisate (1 mM) +, Stabilizer (2.5 mM) Acetone sodium bisulfite, pH 4.6, SID 90621, second listing, AAPH 80° C. 30 mins): 73.1%
- 6555 Remain (%) ([1]; ascorbate (2.5 mM) +, gentisate (1 mM) +, Stabilizer (2.5 mM) D-mannitol, pH 4.5, SID 90641, AAPH 80° C. 30 mins): 15.5%
- 6555 Remain (%) ([1]; ascorbate (2.5 mM) +, gentisate (1 mM) +, Stabilizer (2.5 mM) MSM(dimethyl sulfone), pH 4.5, SID 90598, AAPH 80° C. 30 mins): 8.2%
- 6555 Remain (%) ([1]; ascorbate (2.5 mM) +, gentisate (1 mM) +, Stabilizer (2.5 mM) N-Acetyl-L-phenylalanine, pH 4.0, SID 90610, AAPH 80° C. 30 mins): 20.1%
- 6555 Remain (%) ([1]; ascorbate (2.5 mM) +, gentisate (1 mM) +, Stabilizer (2.5 mM) N-Acetyl-L-tyrosine, pH 4.0, SID 90589, AAPH 80° C. 30 mins): 13.6%
- 6555 Remain (%) ([1]; ascorbate (2.5 mM) +, gentisate (1 mM) +, Stabilizer (2.5 mM) NAC, pH 4.1, SID 90582, AAPH 80° C. 30 mins): 31.4%
- 6555 Remain (%) ([1]; ascorbate (2.5 mM) +, gentisate (1 mM) +, Stabilizer (2.5 mM) NAM, pH 4.0, SID 90543, AAPH 80° C. 30 mins): 90.8%
- 6555 Remain (%) ([1]; ascorbate (2.5 mM) +, gentisate (1 mM) +, Stabilizer (2.5 mM) NAM, pH 4.5, SID 90623, second listing, AAPH 80° C. 30 mins): 53.3%
- 6555 Remain (%) ([1]; ascorbate (2.5 mM) +, gentisate (1 mM) +, Stabilizer (2.5 mM) Potassium metabisulfite, pH 4.4, SID 90622, second listing, AAPH 80° C. 30 mins): 93.7%
- 6555 Remain (%) ([1]; ascorbate (2.5 mM) +, gentisate (1 mM) +, Stabilizer (2.5 mM) Potassium metabisulfite, pH 4.5, SID 90526, AAPH 80° C. 30 mins): 94.1%
- 6555 Remain (%) ([1]; ascorbate (2.5 mM) +, gentisate (1 mM) +, Stabilizer (2.5 mM) Sodium L-Glutamate monohydrate, pH 4.7, SID 90604, AAPH 80° C. 30 mins): 8.2%
- 6555 Remain (%) ([1]; ascorbate (2.5 mM) +, gentisate (1 mM) +, Stabilizer (2.5 mM) Sodium formaldehydesulfoxylate dihydrate, pH 4.4, SID 90527, AAPH 80° C. 30 mins): 91.7%
- 6555 Remain (%) ([1]; ascorbate (2.5 mM) +, gentisate (1 mM) +, Stabilizer (2.5 mM) Sodium formaldehydesulfoxylate dihydrate, pH 4.5, SID 90620, second listing, AAPH 80° C. 30 mins): 58.0%
- 6555 Remain (%) ([1]; ascorbate (2.5 mM) +, gentisate (1 mM) +, Stabilizer (2.5 mM) Sodium hydrosulfite, pH 4.3, SID 90539, AAPH 80° C. 30 mins): 94.1%
- 6555 Remain (%) ([1]; ascorbate (2.5 mM) +, gentisate (1 mM) +, Stabilizer (2.5 mM) Sodium hydrosulfite, pH 4.4, SID 90537, second listing, AAPH 80° C. 30 mins): 91.7%
- 6555 Remain (%) ([1]; ascorbate (2.5 mM) +, gentisate (1 mM) +, Stabilizer (2.5 mM) Sodium metabisulfite, pH 4.4, SID 90515, AAPH 80° C. 30 mins): 93.8%
- 6555 Remain (%) ([1]; ascorbate (2.5 mM) +, gentisate (1 mM) +, Stabilizer (2.5 mM) Sodium metabisulfite, pH 4.5, SID 90619, second listing, AAPH 80° C. 30 mins): 93.4%
- 6555 Remain (%) ([1]; ascorbate (2.5 mM) +, gentisate (1 mM) +, Stabilizer (2.5 mM) Sodium sulfite, pH 4.5, SID 90616, second listing, AAPH 80° C. 30 mins): 67.9%
- 6555 Remain (%) ([1]; ascorbate (2.5 mM) +, gentisate (1 mM) +, Stabilizer (2.5 mM) Thiourea, pH 4.5, SID 90607, AAPH 80° C. 30 mins): 84.1%
- 6555 Remain (%) ([1]; ascorbate (2.5 mM) +, gentisate (1 mM) +, Stabilizer none, pH 5.1, SID 90525, AAPH 80° C. 30 mins): 16.7%
- 6555 Remain (%) ([1]; ascorbate none, gentisate none, Stabilizer (2.5 mM) NAM, pH 4.0, SID 90640, AAPH 80° C. 30 mins): 85.9%
- 6555 Remain (%) ([1]; ascorbate none, gentisate none, Stabilizer none, pH 4.6, SID 90646, AAPH 80° C. 30 mins): 55.8%
- 6555 Remain (%) ([1]; mM: ascorbate 0, gentisate 0, NAM 5, metabisulfite 5, hydrosulfite 0, pH 4.3, SID 90664, 50 mM AAPH 80° C. 30 mins): 88.8%
- 6555 Remain (%) ([1]; mM: ascorbate 2.5, gentisate 1, NAM 2.5, metabisulfite 2.5, hydrosulfite 0, pH 4.5, SID 90637, 50 mM AAPH 80° C. 30 mins): 94.8%
- 6555 Remain (%) ([1]; mM: ascorbate 2.5, gentisate 1, NAM 10, metabisulfite 2.5, hydrosulfite 0, pH 4.0, SID 90638, 50 mM AAPH 80° C. 30 mins): 93.2%
- 6555 Remain (%) ([1]; mM: ascorbate 2.5, gentisate 1, NAM 25, metabisulfite 2.5, hydrosulfite 0, pH 4.0, SID 90631, 50 mM AAPH 80° C. 30 mins): 92.2%
- 6555 Remain (%) ([1]; mM: ascorbate 5, gentisate 2, NAM 0, metabisulfite 5, hydrosulfite 0, pH 4.5, SID 90643, 50 mM AAPH 80° C. 30 mins): 95.6%
- 6555 Remain (%) ([1]; mM: ascorbate 5, gentisate 2, NAM 0, metabisulfite 5, hydrosulfite 5, pH 4.4, SID 90686, 50 mM AAPH 80° C. 30 mins): 95.3%
- 6555 Remain (%) ([1]; mM: ascorbate 5, gentisate 2, NAM 5, metabisulfite 0, hydrosulfite 0, pH 4.5, SID 90642, 50 mM AAPH 80° C. 30 mins): 66.5%
- 6555 Remain (%) ([1]; mM: ascorbate 5, gentisate 2, NAM 5, metabisulfite 0, hydrosulfite 5, pH 4.5, SID 90701, 50 mM AAPH 80° C. 30 mins): 95.7%
- 6555 Remain (%) ([1]; mM: ascorbate 5, gentisate 2, NAM 5, metabisulfite 5, hydrosulfite 0, pH 4.5, SID 90639, 50 mM AAPH 80° C. 30 mins): 95.8%
- 6555 Remain (%) ([1]; mM: first column (ascorbate) 2.5, gentisate 1, NAM 0, metabisulfite 2.5, hydrosulfite 0, pH 4.5, SID 90619, 50 mM AAPH 80° C. 30 mins): 93.4%
- 6555 Remain (%) ([2]; NAM 0 mM): 64.5%
- 6555 Remain (%) ([2]; NAM 10 mM): 81.7%
- 6555 Remain (%) ([2]; NAM 40 mM): 82.9%
- 6555 Remain (%) ([2]; NAM 80 mM): 85.0%
- 6555 Remain (%) ([2]; NAM 100 mM): 85.6%
- 6555 Remain (%) ([2]; NAM 200 mM): 87.3%
- 6555 Remain (%) ([2]; NAM 400 mM): 90.2%
- degradation in aqueous solution [3]: did not observe any sign of degradation
- pIC50 [4]: 8.42
